Data published in the CheMixHub viscosity set.

Test: xn = mol fraction of the nth substance listed

CCCCCCCO + CCOC(C)=O
viscosity [mPa·s], 101.33 kPa
Details	x2 = 0.1277	x2 = 0.2478	x2 = 0.3609	x2 = 0.4677	x2 = 0.5686	x2 = 0.6673	x2 = 0.7546	x2 = 0.8406
298.15 K	3.587	2.423	1.721	1.284	1	0.823	0.663	0.569
303.15 K	3.13	2.144	1.543	1.184	0.914	0.752	0.627	0.529
308.15 K	2.724	1.904	1.41	1.065	0.839	0.696	0.576	0.496

CCOC(=O)C(C)O (configuration not stated) + CN1CCCC1=O
viscosity [mPa·s], 101 kPa
Details	293.15 K	313.15 K
x1 = 0.0999	–	1.525
x1 = 0.3001	2.585	1.765

NS(=O)(=O)O + CN1CCCC1=O
298 K, 101.33 kPa
Details	viscosity [mPa·s]
x1 = 0.02005	2.01
x1 = 0.03918	2.413
x1 = 0.05851	2.977
x1 = 0.07708	3.724
x1 = 0.09776	4.962

OC1CCCCC1 + CN1CCCC1=O
Details	viscosity [mPa·s]
303.15 K, 101 kPa, x2 = 0.6223	16.55

CS(C)=O + CN(C)C=O
Details	viscosity [mPa·s]
298 K, 101.3 kPa, x1 = 0.1668	0.924
298 K, 101.3 kPa, x1 = 0.3195	1.036
298 K, 101.3 kPa, x1 = 0.5201	1.242
298 K, 101.3 kPa, x1 = 0.6689	1.474
298 K, 101.3 kPa, x1 = 0.8514	1.785
298.15 K, 101 kPa, x1 = 0.1077	0.89
298.15 K, 101 kPa, x1 = 0.2134	0.99
298.15 K, 101 kPa, x1 = 0.4199	1.11
298.15 K, 101 kPa, x1 = 0.5205	1.24
298.15 K, 101 kPa, x1 = 0.6195	1.37
298.15 K, 101 kPa, x1 = 0.8128	1.61
298.15 K, 101 kPa, x1 = 0.9071	1.78
303.15 K, 101 kPa, x2 = 0.1	1.617
303.15 K, 101 kPa, x2 = 0.2	1.466
303.15 K, 101 kPa, x2 = 0.3	1.331
303.15 K, 101 kPa, x2 = 0.4001	1.228
303.15 K, 101 kPa, x2 = 0.5002	1.109
303.15 K, 101 kPa, x2 = 0.6001	1.025
303.15 K, 101 kPa, x2 = 0.7001	0.952
303.15 K, 101 kPa, x2 = 0.8	0.877
303.15 K, 101 kPa, x2 = 0.9	0.814
313.15 K, 101 kPa, x2 = 0.1	1.365
313.15 K, 101 kPa, x2 = 0.2	1.248
313.15 K, 101 kPa, x2 = 0.3	1.141
313.15 K, 101 kPa, x2 = 0.4001	1.057
313.15 K, 101 kPa, x2 = 0.5002	0.969
313.15 K, 101 kPa, x2 = 0.6001	0.9
313.15 K, 101 kPa, x2 = 0.7001	0.839
313.15 K, 101 kPa, x2 = 0.8	0.775
313.15 K, 101 kPa, x2 = 0.9	0.724
318 K, 101.3 kPa, x1 = 0.159	0.7095
318 K, 101.3 kPa, x1 = 0.3184	0.7948
318 K, 101.3 kPa, x1 = 0.521	0.9101
318 K, 101.3 kPa, x1 = 0.6667	1.032
318 K, 101.3 kPa, x1 = 0.8614	1.226
323.15 K, 101 kPa, x2 = 0.1	1.17
323.15 K, 101 kPa, x2 = 0.2	1.075
323.15 K, 101 kPa, x2 = 0.3	0.99
323.15 K, 101 kPa, x2 = 0.4001	0.922
323.15 K, 101 kPa, x2 = 0.5002	0.85
323.15 K, 101 kPa, x2 = 0.6001	0.792
323.15 K, 101 kPa, x2 = 0.7001	0.74
323.15 K, 101 kPa, x2 = 0.8	0.69
323.15 K, 101 kPa, x2 = 0.9	0.647

CCCCC + CO
Details	viscosity [mPa·s]
293.15 K, 101 kPa, x1 = 0.0471	0.5884
293.15 K, 101 kPa, x1 = 0.0999	0.5839
293.15 K, 101 kPa, x1 = 0.1602	0.5769
293.15 K, 101 kPa, x1 = 0.2288	0.5663
293.15 K, 101 kPa, x1 = 0.3074	0.5509
293.15 K, 101 kPa, x1 = 0.3999	0.5282
293.15 K, 101 kPa, x1 = 0.5084	0.4953
293.15 K, 101 kPa, x1 = 0.6397	0.4464
293.15 K, 101 kPa, x1 = 0.7999	0.3733
298.15 K, 101.33 kPa, x2 = 0.0464	0.245
298.15 K, 101.33 kPa, x2 = 0.0696	0.249
298.15 K, 101.33 kPa, x2 = 0.1597	0.265
298.15 K, 101.33 kPa, x2 = 0.2228	0.279
298.15 K, 101.33 kPa, x2 = 0.4412	0.327
298.15 K, 101.33 kPa, x2 = 0.6294	0.384
298.15 K, 101.33 kPa, x2 = 0.741	0.424
298.15 K, 101.33 kPa, x2 = 0.7958	0.445
298.15 K, 101.33 kPa, x2 = 0.9419	0.518
298.15 K, 101.33 kPa, x2 = 0.9734	0.537
303.15 K, 101 kPa, x1 = 0.0471	0.5267
303.15 K, 101 kPa, x1 = 0.0999	0.5186
303.15 K, 101 kPa, x1 = 0.1602	0.5081
303.15 K, 101 kPa, x1 = 0.2288	0.4945
303.15 K, 101 kPa, x1 = 0.3074	0.4767
303.15 K, 101 kPa, x1 = 0.3999	0.4529
303.15 K, 101 kPa, x1 = 0.5084	0.421
303.15 K, 101 kPa, x1 = 0.6397	0.3765
303.15 K, 101 kPa, x1 = 0.7999	0.3135
313.15 K, 101 kPa, x1 = 0.0471	0.5012
313.15 K, 101 kPa, x1 = 0.0999	0.4866
313.15 K, 101 kPa, x1 = 0.1602	0.4694
313.15 K, 101 kPa, x1 = 0.2288	0.4492
313.15 K, 101 kPa, x1 = 0.3074	0.4254
313.15 K, 101 kPa, x1 = 0.3999	0.3963
313.15 K, 101 kPa, x1 = 0.5084	0.3607
313.15 K, 101 kPa, x1 = 0.6397	0.3156
313.15 K, 101 kPa, x1 = 0.7999	0.2574

C[N+](C)(C)CCC[n+]1ccccc1.N#C[N-]C#N.N#C[N-]C#N + CO
viscosity [mPa·s], 100 kPa
Details	293.15 K	303.15 K	313.15 K
x1 = 0.2001	–	11.45	–
x1 = 0.8995	952.8	–	198.5
